The values below come from patent US6140364A, “Arachidonic acid metabolite, 16-HETE” (The University of Vermont and State Agricultural College, priority 1996, dated 2000).

The subject of data set [1] is neutrophil aggregation. The data set can be described thus: Neutrophil aggregation (inventors' finding, method not given at the place). It is filed as cell-based.
For data set [2], the system named is thrombin-stimulated human neutrophils (adhesion to a gelatin matrix). The data set can be described thus: Neutrophil adhesion to gelatin matrix, thrombin-stimulated. It is filed as cell-based. Particulars: for inhibition at 1 µM: Homo sapiens, Neutrophil, thrombin 1 U/ml, 3×10^6 cells/ml, 10 min preincubation. The method, then: (§1) Preparation of human polymorphonuclear leukocytes: Venous blood (60-70 ml) was collected from four healthy, normal volunteers into syringes containing heparin (1 U/ml). Polymorphonuclear leukocytes (PMNs) were isolated by a histopaque density gradient technique as previously described in Liu et al., Adhesion, Its role in Inflammatory Disease, Freeman and Co., New York, 1992, pp 189-192. Briefly, blood aliquots (6 ml) were layered over two layers (3 ml) of histopaque 1077 and 1119 in a conical centrifuge tube. The sample was then subjected to centrifugation at 100× g for 30 minutes at room temperature and the top layer, containing the neutrophils, was carefully collected. Hypotonic lysis was used to separate out the red blood cells. The neutrophils were then isolated from the sample by centrifugation (2000× g) and suspended in Hanks balanced salt solution (HBSS) containing 1 mM Ca^2+ and 0.8 mM Mg^2+ for studies involving arachidonic acid metabolism, and in M199 (with 1% BSA) for neutrophil adhesion assays. Total cells were counted using a hemocytometer and leukocytes were counted after staining with Wright-Giemsa stain. For each experiment, the cell preparations used contain ≥97% neutrophils, having ≥95% viability as determined by a trypan blue exclusion assay.
Neutrophil adhesion: Isolated neutrophils were resuspended in M199 containing 1% BSA with a final concentration of 3×10^6 cells per ml. Cells suspensions (1 ml) were incubated with or without a test compound, 16(S)-HETE, 16(R)-HETE, or 20-HETE (concentrations 1 nM to 10 μM) for 10 min and then placed into gelatin-coated wells and further incubated for 20 min at 37° C. The wells were washed three times with 0.5 ml of solution M199 to remove non-adherent cells. The adherent cells were then removed by addition of 0.4 ml of 0.25% trypsin-EDTA in 0.1 M PBS to the gelatin-coated wells and incubation for 10 min at 37° C. […] The amount of cells in combined solutions was counted. […] The inhibition of adhesion was expressed as percent of cells remaining in suspension (non-adherent) relative to control. […]

In data set [3] the test system is neutrophil aggregation stimulated by fMLP. As to the kind of experiment: fMLP-induced neutrophil aggregation in diluted whole human blood. It is filed as cell-based. Conditions: for inhibition at 1 µM: 10 min, 1 μM HETE, N = 3 to 4, read-out: Aggregation (percent of inhibition from HETE untreated cells); for inhibition of fMLP-induced neutrophil aggregation: ≤10 μM. How it is done:
(§2) Neutrophil activity: Stimulated neutrophil aggregation and oxygen free radical release were examined in whole human blood using a whole-blood aggregometer-chemiluminometer (Chronolog, Haverton, Pa.) as described Bednar et al. J. Thromb. Thrombol. 1, 179-185 (1995). Blood samples containing heparin (1 U/ml) as the anticoagulant were diluted in HBSS in proportion 1 to 9. Diluted blood aliquots (1 ml) were stirred (400 rpm) in a prewarmed (37° C.) siliconized cuvette containing cytochalasin b (5 μg/ml) and luminol (in 8 μl DMSO, 500 μM final concentration) and the test HETE (concentration 0.01 to 10 μM) for 10 min. Neutrophils were stimulated with a submaximal dose of FMLP (5×10^-7 M final concentration). The aggregation and chemiluminescence were simultaneously measured as changes of impedance and luminescence respectively. The fMLP-induced chemiluminescence was calculated as the peak height of the reaction.

In data set [4] the test system is human neutrophils. As to the kind of experiment: Agonist activity on human neutrophils. Conditions: ≤20 μM. It is filed as cell-based.
In data set [5] the test system is basal human neutrophils (adhesion to a gelatin matrix). As to the kind of experiment: Neutrophil adhesion to gelatin matrix, basal (unstimulated). Conditions: for inhibition at 1 µM: Homo sapiens, Neutrophil, 10 min preincubation; for inhibition of neutrophil adhesion, basal: 20-HETE at ≤10 μM, 16-HETE isomers 10^-8 to 10^-5 M; for potency of neutrophil inhibition relative to the other stereoisomer: unstimulated and stimulated neutrophils. It is filed as cell-based. How it is done:
as §1
Neutrophil adhesion: Isolated neutrophils were resuspended in M199 containing 1% BSA with a final concentration of 3×10^6 cells per ml. Cells suspensions (1 ml) were incubated with or without a test compound, 16(S)-HETE, 16(R)-HETE, or 20-HETE (concentrations 1 nM to 10 μM) for 10 min and then placed into gelatin-coated wells and further incubated for 20 min at 37° C. The wells were washed three times with 0.5 ml of solution M199 to remove non-adherent cells. The adherent cells were then removed by addition of 0.4 ml of 0.25% trypsin-EDTA in 0.1 M PBS to the gelatin-coated wells and incubation for 10 min at 37° C. The incubates were transferred and the wells were washed with 0.1 ml of M199 solution. The amount of cells in combined solutions was counted. In some experiments, the adhesion of neutrophils was stimulated by addition of 1 U/ml of thrombin to neutrophil suspension immediately prior to the transfer of cells to the wells. Experiments were performed in duplicates for each concentration of HETE. The inhibition of adhesion was expressed as percent of cells remaining in suspension (non-adherent) relative to control. The range of adherent PMNs in control incubations was 6 to 23%. This was increased two-fold in the presence of thrombin.

For data set [6], the system named is oxygen free radicals (OFR) release stimulated by fMLP. As to the kind of experiment: fMLP-stimulated oxygen free radical (OFR) release, chemiluminescence, in diluted human blood. Type of data set: cell-based. Conditions: 10 min, 1 μM HETE, fMLP 5×10^-7 M, N = 3 to 4, read-out: OFR Release (percent of inhibition from HETE untreated cells). How it is done:
as §2

Data set [7] has as its system platelet or other leukocyte. As to the kind of experiment: Platelet or other leukocyte activity or function.
Data set [8] relates to formation of product A by human neutrophils. The data set can be described thus: Inhibition of arachidonic acid metabolism (formation of product A) in intact human neutrophils. Type of data set: cell-based. Conditions: SKF 525A 100 μM, BW755C 94 μM, 10 min preincubation. The method, then: as §1, with “The neutrophils were then isolated from the sample by centrifugation (2000× g) and suspended in Hanks balanced salt solution (HBSS) containing 1 mM Ca^2+ and 0.8 mM Mg^2+ for studies involving arachidonic acid metabolism, and in M199 (with 1% BSA) for neutrophil adhesion assays.” left out, “assay. […]” for “assay.”
After ten minutes in arachidonic acid the reaction was terminated by the addition of cold methanol (four volumes). […] The effluent was passed through a UV detector (HP1050/ChemStation-Hewlett-Packard, Palo Alto, Calif.) and a radioactivity detector (Radiomatic, Meridian, Conn.) with a splitter (ratio 1:10) and collected in 1 ml fractions.

In data set [9] the test system is intact canine and human neutrophils. Conditions: cited from earlier work.
Where [10] appears, read: Neutrophil, fMLP 5×10^-7 M, diluted human blood.

As to `CCCCC[C@H](O)/C=C/C=C\C/C=C\C/C=C\CCCC(=O)O` [15-HETE], in data set [1], the “inhibition of neutrophil aggregation” value is “neither 20-HETE nor 15-HETE inhibited neutrophil aggregation”.
A word on the inhibition: it is the change of the read-out against control, counted positive when it falls. Broadly, the IC50 is the concentration needed to halve the response being measured. Turning to `CCCC[C@@H](O)/C=C\C/C=C\C/C=C\C/C=C\CCCC(=O)O` [16(R)-HETE, 16(R)-hydroxy-5,8,11,14-eicosatetraenoic acid], the inhibition at 1 µM came out at 50 ± 4% in [2], 42 ± 11% in [3] (setting [10]), 73 ± 11% in [5] (gelatin matrix) and 8.9 ± 5.1% in data set [6]. For the same compound, the IC50 in data set [3] (Neutrophil, fMLP 5×10^-7 M, diluted human blood, read-out: IC50, inhibition of fMLP-induced neutrophil aggregation) amounted to 1200 nM. In addition, in data set [4], the “agonist activity on human neutrophils” value was “no detectable agonist activity”. Further, the “inhibition of neutrophil adhesion to gelatin” value in [5] (10 μM, preincubation) was “completely inhibited”. The “inhibition of neutrophil adhesion, basal” value in data set [5] was “inhibited neutrophil adhesion in a dose-dependent manner”. In data set [5] (gelatin matrix), the “preincubation time required to inhibit adhesion” value came to 10 min. In data set [5], the “potency of neutrophil inhibition relative to the other stereoisomer” value was “more potent than the effect observed with the opposite stereoisomer”.
On to `CCCC[C@H](O)/C=C\C/C=C\C/C=C\C/C=C\CCCC(=O)O` [16(S)-HETE, S-stereoisomer of 16-hydroxyeicosatetraenoic acid], for which the inhibition at 1 µM in data set [2] is 40 ± 14%; in data set [3] (setting [10]), 7 ± 3.5%; in [5] (gelatin matrix), 39 ± 8%; in data set [6] it was 5.6 ± 16.7%. Also, the “inhibition of fMLP-induced neutrophil aggregation” value in [3] is given as “not active”. The “agonist activity on human neutrophils” value in data set [4] is “no detectable agonist activity”. For the same compound, the “inhibition of neutrophil adhesion, basal” value in data set [5] is on record as “inhibited neutrophil adhesion in a dose-dependent manner”. For the same compound, the “potency of neutrophil inhibition relative to the other stereoisomer” value in [5] is reported as “less potent”.
On to `CCCCC(O)/C=C\C/C=C\C/C=C\C/C=C\CCCC(=O)O` (stereo not shown) [16-HETE, 16-hydroxyeicosatetraenoic acid], for which the “effect on platelet or other leukocyte activity or function” value in [7] is reported as “does not affect platelet or other leukocyte activity or function”.
Take `O=C(O)CCC/C=C\C/C=C\C/C=C\C/C=C\CCCCCO` [20-HETE, reference compound]: the “inhibition of neutrophil adhesion, thrombin-stimulated” value in [2] (thrombin-stimulated, 20-HETE at ≤10 μM, 16-HETE isomers 10^-8 to 10^-5 M) is given as “did not inhibit neutrophil adhesion”. Further, the inhibition at 1 µM in data set [3] (setting [10]) is 8.1 ± 2.6%; in data set [6], 3.9 ± 13.4%. Moreover, in data set [3], the “inhibition of fMLP-induced neutrophil aggregation” value was “not active”. For the same compound, the “inhibition of neutrophil aggregation” value in [1] is recorded as “neither 20-HETE nor 15-HETE inhibited neutrophil aggregation”. Further, the “agonist activity on human neutrophils” value in data set [4] was “no detectable agonist activity”. Besides, in data set [5], the “inhibition of neutrophil adhesion, basal” value is “did not inhibit neutrophil adhesion”.
With `NC1=NN(c2cccc(C(F)(F)F)c2)CC1` [BW755C], the “inhibition of formation of product A” value in data set [8] is given as “not with BW755C”.
On to `CCCC(C(=O)OCCN(CC)CC)(c1ccccc1)c1ccccc1` [SKF525A], for which, in [8], the “inhibition of formation of product A” value is “can be inhibited with SKF525A”. In addition, the “inhibition of formation of polar arachidonic acid metabolites” value in [9] is “formation can be inhibited”.
`[C-]#[O+]` [carbon monoxide]: in data set [9], the “inhibition of formation of polar arachidonic acid metabolites” value is “formation can be inhibited”.
